What was measured:
[1] = biological target: GDP-bound KRAS wild-type protein (Homo sapiens, UniProt P01116); experiment: Binding to KRAS by surface plasmon resonance (SPR), dissociation constant KD; conditions: 1:1 binding model
Method in brief: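 Measured at 30°C: SPR with GDP-loaded, E. coli-expressed biotin-Avi RAS captured (~100–300 RU), ascending 75 s compound injections, HBS pH 7.4 with GDP, MgCl2, 4% DMSO. KD from 1:1 fit.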

[2] = biological target: GDP-bound NRAS wild-type protein (Homo sapiens, UniProt P01111); experiment: Binding to NRAS by surface plasmon resonance (SPR), KD and KD ratio to KRAS; conditions: ratio of KD for GDP-bound NRAS wild-type protein to KD for KRAS
Method in brief: (§1)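 Affinity is measured by surface plasmon resonance at 30°C against captured, GDP-loaded RAS carrying a biotinylated Avi tag. Compounds are titrated by single-cycle kinetics, and KD comes from a 1:1 fit.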

HRAS wild-type protein = HRAS wild-type protein (Homo sapiens, UniProt P01112); experiment: Binding to HRAS by surface plasmon resonance (SPR), KD and KD ratio to KRAS; conditions: ratio of KD for HRAS wild-type protein to KD for KRAS
Method in brief: as §1

[3] = tested on: human lung cancer strain NCI-H441; assay type: cell-based
Method in brief: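 Readout: […] after the ATP-based reagent. Compound: serial dilutions in dimethyl sulfoxide.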

GDP-bound KRAS wild-type protein, sequence (P01116 1-188 isoform P01116-2): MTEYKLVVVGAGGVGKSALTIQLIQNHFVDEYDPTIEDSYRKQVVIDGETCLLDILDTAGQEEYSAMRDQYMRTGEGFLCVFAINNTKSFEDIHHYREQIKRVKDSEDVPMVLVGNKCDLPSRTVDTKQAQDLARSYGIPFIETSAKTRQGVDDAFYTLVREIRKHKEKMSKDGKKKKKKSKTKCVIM
HRAS wild-type protein, sequence (P01112 whole entry): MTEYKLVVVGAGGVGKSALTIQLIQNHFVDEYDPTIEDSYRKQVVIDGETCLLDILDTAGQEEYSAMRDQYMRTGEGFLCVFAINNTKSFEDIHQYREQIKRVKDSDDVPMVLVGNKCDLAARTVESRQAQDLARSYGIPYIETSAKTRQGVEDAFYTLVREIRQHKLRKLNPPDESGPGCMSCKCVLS
GDP-bound NRAS wild-type protein, sequence (P01111 whole entry): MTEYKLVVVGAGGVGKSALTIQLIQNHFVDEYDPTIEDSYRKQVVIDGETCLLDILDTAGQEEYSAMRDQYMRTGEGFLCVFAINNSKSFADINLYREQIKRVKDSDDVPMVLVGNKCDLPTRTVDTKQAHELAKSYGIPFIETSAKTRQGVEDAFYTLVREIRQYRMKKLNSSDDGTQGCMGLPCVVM

SMILES	Kd [1] [nM]	IC50 [3] [nM]	NRAS /KRAS [2]	HRAS /KRAS (HRAS wild-type protein)
CCO[C@@H]1C[C@H]2C(=O)NC3(CC(C)(C)C3)C(=O)N(C)[C@@H](C3CCCC3)C(=O)N(C)[C@H](C(=O)N(C)CC)CC(=O)N(C)[C@@H]([C@@H](C)OC)C(=O)N[C@@H]([C@@H](C)CC)C(=O)N3CCC[C@H]3C(=O)N(C)[C@H]3C/C=C\CCN(C3=O)[C@@H](Cc3ccc(C)cc3)C(=O)N(C)CC(=O)N[C@@H](CCc3ccc(C(F)(F)F)c(Cl)c3)C(=O)N2C1 [PP3192]	0.96	41.3	A (a compound having 10 or more and less than 20 is denoted as A)	A (a compound having 10 or more and less than 20 is denoted as A)
CCO[C@@H]1C[C@H]2C(=O)NC3(CC(C)(C)C3)C(=O)N(C)[C@@H](C3CCCC3)C(=O)N(C)[C@H](C(=O)N(C)C)CC(=O)N(C)[C@@H]([C@H](C)OC)C(=O)N[C@@H]([C@@H](C)CC)C(=O)N(C3CC3)CC(=O)N(C)[C@H]3C/C=C\CCN(C3=O)[C@@H](Cc3ccc(C)cc3)C(=O)N(C)CC(=O)N[C@@H](CCc3cc(F)c(C(F)(F)F)c(F)c3)C(=O)N2C1 [PP3193]	0.35	21.1	A (a compound having 10 or more and less than 20 is denoted as A)	A (a compound having 10 or more and less than 20 is denoted as A)
CCO[C@@H]1C[C@H]2C(=O)NC3(CC(C)(C)C3)C(=O)N(C)[C@@H](C3CCCC3)C(=O)N(C)[C@H](C(=O)N(C)C)CC(=O)N(C)[C@@H]([C@H](C)OC)C(=O)N[C@@H]([C@@H](C)CC)C(=O)N(C3CC3)CC(=O)N(C)[C@H]3C/C=C\CCN(C3=O)[C@@H](Cc3ccc(C)cc3)C(=O)N(C)CC(=O)N[C@@H](CCc3ccc(C(F)(F)F)c(Cl)c3)C(=O)N2C1 [PP3195]	0.41	22.2	A (a compound having 10 or more and less than 20 is denoted as A)	A (a compound having 10 or more and less than 20 is denoted as A)
CCO[C@@H]1C[C@H]2C(=O)NC3(CC(C)(C)C3)C(=O)N(C)[C@@H](C3CCCC3)C(=O)N(C)[C@H](C(=O)N(C)C)CC(=O)N(C)[C@@H]([C@H](C)OC)C(=O)N[C@@H]([C@@H](C)CC)C(=O)N3CCC[C@H]3C(=O)N(C)[C@H]3C/C=C\CCN(C3=O)[C@@H](Cc3ccc(C)cc3)C(=O)N(C)CC(=O)N[C@@H](CCc3ccc(C(F)(F)F)c(OC)c3)C(=O)N2C1 [PP3197]	1.4	130	A (a compound having 10 or more and less than 20 is denoted as A)	A (a compound having 10 or more and less than 20 is denoted as A)
CCO[C@@H]1C[C@H]2C(=O)NC3(CC(C)(C)C3)C(=O)N(C)[C@@H](C3CCCC3)C(=O)N(C)[C@H](C(=O)N(C)C)CC(=O)N(C)[C@@H]([C@H](C)OC)C(=O)N[C@@H]([C@@H](C)CC)C(=O)N3CCC[C@H]3C(=O)N(C)[C@H]3C/C=C\CCN(C3=O)[C@@H](Cc3ccc(C)cc3)C(=O)N(C)CC(=O)N[C@@H](CCc3cc(F)c(C(F)(F)F)c(F)c3)C(=O)N2C1 [PP3199]	0.8	49.6	A (a compound having 10 or more and less than 20 is denoted as A)	A (a compound having 10 or more and less than 20 is denoted as A)
CCO[C@@H]1C[C@H]2C(=O)NC3(CC(C)(C)C3)C(=O)N(C)[C@@H](C3CCCC3)C(=O)N(C)[C@H](C(=O)N(C)C)CC(=O)N(C)[C@@H]([C@@H](C)OC)C(=O)N[C@@H]([C@@H](C)CC)C(=O)N(C3CC3)CC(=O)N(C)[C@H]3C/C=C\CCN(C3=O)[C@@H](Cc3ccc(C(F)(F)F)cc3)C(=O)N(C)CC(=O)N[C@@H](CCc3ccc(C(F)(F)F)c(OC)c3)C(=O)N2C1 [PP3200]	0.21	7.1	A (a compound having 10 or more and less than 20 is denoted as A)	A (a compound having 10 or more and less than 20 is denoted as A)

Further lines, with some results ahead:

Kd [1] [nM]	IC50 [3] [nM]	SMILES	NRAS /KRAS [2]	HRAS /KRAS (HRAS wild-type protein)
0.4	29.2	CCO[C@@H]1C[C@H]2C(=O)NC3(CC(C)(C)C3)C(=O)N(C)[C@@H](C3CCCC3)C(=O)N(C)[C@H](C(=O)N(C)C)CC(=O)N(C)[C@@H]([C@@H](C)OC)C(=O)N[C@@H]([C@@H](C)CC)C(=O)N3CCC[C@H]3C(=O)N(C)[C@H]3C/C=C\CCN(C3=O)[C@@H](Cc3ccc(C(F)(F)F)cc3)C(=O)N(C)CC(=O)N[C@@H](CCc3ccc(C(F)(F)F)c(OC)c3)C(=O)N2C1 [PP3204]	A (a compound having 10 or more and less than 20 is denoted as A)	A (a compound having 10 or more and less than 20 is denoted as A)
0.39	18.4	CCO[C@@H]1C[C@H]2C(=O)NC3(CC(C)(C)C3)C(=O)N(C)[C@@H](C3CCCC3)C(=O)N(C)[C@H](C(=O)N(C)C)CC(=O)N(C)[C@@H]([C@@H](C)OC)C(=O)N[C@@H]([C@@H](C)CC)C(=O)N3CCC[C@H]3C(=O)N(C)[C@H]3C/C=C\CCN(C3=O)[C@@H](Cc3ccc(C(F)(F)F)cc3)C(=O)N(C)CC(=O)N[C@@H](CCc3cc(F)c(C(F)(F)F)c(F)c3)C(=O)N2C1 [PP3205]	A (a compound having 10 or more and less than 20 is denoted as A)	A (a compound having 10 or more and less than 20 is denoted as A)
0.43	19.2	CCO[C@@H]1C[C@H]2C(=O)NC3(CC(C)(C)C3)C(=O)N(C)[C@@H](C3CCCC3)C(=O)N(C)[C@H](C(=O)N(C)C)CC(=O)N(C)[C@@H]([C@@H](C)OC)C(=O)N[C@@H]([C@@H](C)CC)C(=O)N3CCC[C@H]3C(=O)N(C)[C@H]3C/C=C\CCN(C3=O)[C@@H](Cc3ccc(C(F)(F)F)cc3)C(=O)N(C)CC(=O)N[C@@H](CCc3ccc(C(F)(F)F)c(Cl)c3)C(=O)N2C1 [PP3206]	A (a compound having 10 or more and less than 20 is denoted as A)	A (a compound having 10 or more and less than 20 is denoted as A)
0.059	5.6	CCO[C@@H]1C[C@H]2C(=O)NC3(CC(C)(C)C3)C(=O)N(C)[C@@H](C3CCCC3)C(=O)N(C)[C@H](C(=O)N(C)C)CC(=O)N(C)[C@@H]([C@@H](C)OC)C(=O)N[C@@H]([C@@H](C)CC)C(=O)N(C)CC(=O)N(C)[C@H]3C/C=C\CCN(C3=O)[C@@H](Cc3ccc(C)cc3)C(=O)N(C)CC(=O)N[C@@H](CCc3ccc(C(F)(F)F)c(OC)c3)C(=O)N2C1 [PP3207]	A (a compound having 10 or more and less than 20 is denoted as A)	A (a compound having 10 or more and less than 20 is denoted as A)
0.076	2.8	CCO[C@@H]1C[C@H]2C(=O)NC3(CC(C)(C)C3)C(=O)N(C)[C@@H](C3CCCC3)C(=O)N(C)[C@H](C(=O)N(C)C)CC(=O)N(C)[C@@H]([C@@H](C)OC)C(=O)N[C@@H]([C@@H](C)CC)C(=O)N(C)CC(=O)N(C)[C@H]3C/C=C\CCN(C3=O)[C@@H](Cc3ccc(C)cc3)C(=O)N(C)CC(=O)N[C@@H](CCc3cc(F)c(C(F)(F)F)c(F)c3)C(=O)N2C1 [PP3208]	A (a compound having 10 or more and less than 20 is denoted as A)	A (a compound having 10 or more and less than 20 is denoted as A)
0.1	5.5	CCO[C@@H]1C[C@H]2C(=O)NC3(CC(C)(C)C3)C(=O)N(C)[C@@H](C3CCCC3)C(=O)N(C)[C@H](C(=O)N(C)C)CC(=O)N(C)[C@@H]([C@@H](C)OC)C(=O)N[C@@H]([C@@H](C)CC)C(=O)N(C)CC(=O)N(C)[C@H]3C/C=C\CCN(C3=O)[C@@H](Cc3ccc(C)cc3)C(=O)N(C)CC(=O)N[C@@H](CCc3ccc(C(F)(F)F)c(Cl)c3)C(=O)N2C1 [PP3209]	A (a compound having 10 or more and less than 20 is denoted as A)	B (a compound having 3 or more and less than 10 is denoted as B)
0.53	19.1	CCO[C@@H]1C[C@H]2C(=O)NC3(CC(C)(C)C3)C(=O)N(C)[C@@H](C3CCCC3)C(=O)N(C)[C@H](C(=O)N(C)C)CC(=O)N(C)[C@@H]([C@@H](C)OC)C(=O)N[C@@H]([C@@H](C)CC)C(=O)N(C3CC3)CC(=O)N(C)[C@H]3C/C=C\CCN(C3=O)[C@@H](Cc3ccc(C)cc3)C(=O)N(C)CC(=O)N[C@@H](CCc3ccc(C(F)(F)F)c(OC)c3)C(=O)N2C1 [PP3210]	A (a compound having 10 or more and less than 20 is denoted as A)	B (a compound having 3 or more and less than 10 is denoted as B)
0.33	19.4	CCO[C@@H]1C[C@H]2C(=O)NC3(CC(C)(C)C3)C(=O)N(C)[C@@H](C3CCCC3)C(=O)N(C)[C@H](C(=O)N(C)C)CC(=O)N(C)[C@@H]([C@@H](C)OC)C(=O)N[C@@H]([C@@H](C)CC)C(=O)N(C3CC3)CC(=O)N(C)[C@H]3C/C=C\CCN(C3=O)[C@@H](Cc3ccc(C)cc3)C(=O)N(C)CC(=O)N[C@@H](CCc3cc(F)c(C(F)(F)F)c(F)c3)C(=O)N2C1 [PP3211]	A (a compound having 10 or more and less than 20 is denoted as A)	A (a compound having 10 or more and less than 20 is denoted as A)
0.3	16.6	CCO[C@@H]1C[C@H]2C(=O)NC3(CC(C)(C)C3)C(=O)N(C)[C@@H](C3CCCC3)C(=O)N(C)[C@H](C(=O)N(C)C)CC(=O)N(C)[C@@H]([C@@H](C)OC)C(=O)N[C@@H]([C@@H](C)CC)C(=O)N(C3CC3)CC(=O)N(C)[C@H]3C/C=C\CCN(C3=O)[C@@H](Cc3ccc(C)cc3)C(=O)N(C)CC(=O)N[C@@H](CCc3ccc(C(F)(F)F)c(Cl)c3)C(=O)N2C1 [PP3212]	A (a compound having 10 or more and less than 20 is denoted as A)	A (a compound having 10 or more and less than 20 is denoted as A)

From patent EP4603105A1, “PHARMACEUTICAL COMPOSITION CONTAINING CYCLIC COMPOUND HAVING SELECTIVE KRAS INHIBITORY EFFECT AGAINST HRAS AND NRAS” (CHUGAI SEIYAKU KABUSHIKI KAISHA, priority 2022, dated 2024)
